#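 All cell lines were grown in 96-well plates and treated with compound for 48 hours. TGI: total growth inhibition.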
# Legend:
# Experiment in all cases: NCI tumour cell line growth inhibition, 48 h
# [1] = test system: 786-0 renal
# [2] = test system: A498 renal
# [3] = test system: A549 NSCLC
# [4] = test system: ACHN renal
# [5] = test system: BT-549 breast
# [6] = test system: CAKI-1 renal
# [7] = test system: CCRF-CEM leukemia
# [8] = test system: COLO 205 colon
# [9] = test system: DU-145 prostate
# [10] = test system: EKVX NSCLC
# [11] = test system: HCC-2998 colon
# [12] = test system: HCT-116 colon
# [13] = test system: HCT-15 colon
# [14] = test system: HL-60(TB) leukemia
# [15] = test system: HOP-62 NSCLC
# [16] = test system: HOP-92 NSCLC
# [17] = test system: HT29 colon
# [18] = test system: IGROV1 ovarian
# [19] = test system: K-562 leukemia
# [20] = test system: KM12 colon
# [21] = test system: M14 melanoma
# [22] = test system: MALME-3M melanoma
# [23] = test system: MCF7 breast
# [24] = test system: MDA-MB-231 breast
# [25] = test system: MDA-MB-435
# [26] = test system: MDA-N
# [27] = test system: MOLT-4 leukemia
# [28] = test system: NCI-H226 lung
# [29] = test system: NCI-H23 lung
# [30] = test system: NCI-H460 lung
# [31] = test system: NCI-H522 lung
# [32] = test system: NCI/ADR-RES ovarian
# [33] = test system: OVCAR-3 ovarian
# [34] = test system: OVCAR-4 ovarian
# [35] = test system: OVCAR-5 ovarian
# [36] = test system: OVCAR-8 ovarian
# [37] = test system: PC-3 prostate
# [38] = test system: RPMI-8226 leukemia
# [39] = test system: RXF 393 renal
# [40] = test system: SF-268 CNS
# [41] = test system: SF-295 CNS
# [42] = test system: SF-539 CNS
# [43] = test system: SK-MEL-2 melanoma
# [44] = test system: SK-MEL-28 melanoma
# [45] = test system: SK-OV-3 ovarian
# [46] = test system: SN12C renal
# [47] = test system: SNB-19 CNS
# [48] = test system: SNB-75 CNS
# [49] = test system: SR leukemia
# [50] = test system: SW-620 colon
# [51] = test system: T-47D breast
# [52] = test system: U251 CNS
# [53] = test system: UACC-257 melanoma
# [54] = test system: UACC-62 melanoma
# [55] = test system: UO-31 renal
# [56] = test system: HS 578T breast
# [57] = test system: LOX IMVI melanoma
# [58] = test system: SK-MEL-5 melanoma
# [59] = test system: TK-10 renal
compound,measurement,setting,value
O=c1c2cc(-c3ccccc3)cnc2sn1-c1ccc(Br)cc1,TGI,[1],> 100 µM
same,TGI,[2],> 100 µM
same,TGI,[3],> 100 µM
same,TGI,[4],> 100 µM
same,TGI,[5],> 100 µM
same,TGI,[6],> 100 µM
same,TGI,[7],> 100 µM
same,TGI,[8],> 100 µM
same,TGI,[9],> 100 µM
same,TGI,[10],> 100 µM
same,TGI,[11],> 100 µM
same,TGI,[12],> 100 µM
same,TGI,[13],> 100 µM
same,TGI,[14],> 100 µM
same,TGI,[15],> 100 µM
same,TGI,[16],> 100 µM
same,TGI,[17],> 100 µM
same,TGI,[18],> 100 µM
same,TGI,[19],> 100 µM
same,TGI,[20],> 100 µM
same,TGI,[21],> 100 µM
same,TGI,[22],> 100 µM
same,TGI,[23],> 100 µM
same,TGI,[24],> 100 µM
same,TGI,[25],> 100 µM
same,TGI,[26],> 100 µM
same,TGI,[27],> 100 µM
same,TGI,[28],> 100 µM
same,TGI,[29],> 100 µM
same,TGI,[30],> 100 µM
same,TGI,[31],> 100 µM
same,TGI,[32],> 100 µM
same,TGI,[33],> 100 µM
same,TGI,[34],> 100 µM
same,TGI,[35],> 100 µM
same,TGI,[36],> 100 µM
same,TGI,[37],> 100 µM
same,TGI,[38],> 100 µM
same,TGI,[39],> 100 µM
same,TGI,[40],> 100 µM
same,TGI,[41],> 100 µM
same,TGI,[42],> 100 µM
same,TGI,[43],> 100 µM
same,TGI,[44],> 100 µM
same,TGI,[45],> 100 µM
same,TGI,[46],> 100 µM
same,TGI,[47],> 100 µM
same,TGI,[48],> 100 µM
same,TGI,[49],> 100 µM
same,TGI,[50],> 100 µM
same,TGI,[51],> 100 µM
same,TGI,[52],> 100 µM
same,TGI,[53],> 100 µM
same,TGI,[54],> 100 µM
same,TGI,[55],> 100 µM
CC1=C(C(=O)OC2CC3CCC2(C)C3(C)C)C2Nc3ccccc3N(C)C2O1 (stereo not given),TGI,[1],9.09 µM
same,TGI,[2],18.9 µM
same,TGI,[3],4.53 µM
same,TGI,[4],11.2 µM
same,TGI,[5],6.43 µM
same,TGI,[6],10.5 µM
same,TGI,[7],7.07 µM
same,TGI,[8],2.4 µM
same,TGI,[9],2.79 µM
same,TGI,[10],21.1 µM
same,TGI,[11],3.91 µM
same,TGI,[12],7.36 µM
same,TGI,[13],5.6 µM
same,TGI,[14],4.97 µM
same,TGI,[15],16.6 µM
same,TGI,[16],20.8 µM
same,TGI,[56],16.3 µM
same,TGI,[17],3.08 µM
same,TGI,[18],6.97 µM
same,TGI,[19],> 29.4 µM
same,TGI,[20],8.67 µM
same,TGI,[57],6.12 µM
same,TGI,[21],3.22 µM
same,TGI,[24],16.9 µM
same,TGI,[25],3.13 µM
same,TGI,[26],3.55 µM
same,TGI,[27],6.69 µM
same,TGI,[28],39.3 µM
same,TGI,[29],6.59 µM
same,TGI,[30],3.7 µM
same,TGI,[31],4.02 µM
same,TGI,[32],12.6 µM
same,TGI,[33],11.9 µM
same,TGI,[35],25.9 µM
same,TGI,[36],9.02 µM
same,TGI,[37],12.3 µM
same,TGI,[38],6.78 µM
same,TGI,[39],18.5 µM
same,TGI,[40],22.5 µM
same,TGI,[41],3.04 µM
same,TGI,[43],7.9 µM
same,TGI,[44],16 µM
same,TGI,[58],3.53 µM
same,TGI,[45],14.5 µM
same,TGI,[46],4.25 µM
same,TGI,[47],10.1 µM
same,TGI,[48],11.5 µM
same,TGI,[49],9.52 µM
same,TGI,[50],6.99 µM
same,TGI,[51],11.8 µM
same,TGI,[59],17.4 µM
same,TGI,[52],16.6 µM
same,TGI,[53],3.3 µM
same,TGI,[54],4.29 µM
same,TGI,[55],7.19 µM
